From publication PMC12143348, “Rapid and reversible fluorescent probe enables repeated snapshot imaging of AMPA receptors during synaptic plasticity” (Science Advances, 2025)
“Also recorded” adds a separate entry of the source.

What was measured:
[1] = tested on: Halo-tag-fused GluA2 in HEK293T cells; experiment: Exocytosis assay of AMPARs in HEK293T cells (Halo-tag pulse labeling); format: cell-based; settings: 25 µM, 2 h at 37 °C
Procedure: Exocytosis assay of AMPARs in HEK293T cells
HEK293T cells expressing Halo-tag-GluA2 flip(Q)-3’UTR were treated with Halo-tag ligand-Alexa488 (HTL(AF488)) for 30 min at room temperature as a first pulse. After washing with DMEM three times, the cells were incubated with 25 µM brefeldin A or DMSO for 2 h at 37 °C in a 95% air and 5% CO2 humidified incubator. Then, HTL(AF647) was added to the dishes and incubated for 15 min at room temperature as a second pulse to visualize spontaneous exocytosed AMPARs. Labeled cells were fixed with 4% PFA for 15 min. The fluorescent images were obtained using confocal […]
General materials and methods for organic synthesis
All chemical reagents and solvents were purchased from commercial sources (FUJIFILM Wako pure chemical, TCI chemical, Sigma-Aldrich, Click Chemistry Tools, BroadPharm) and were used without further purification. Thin-layer chromatography (TLC) was performed on silica gel 60 F254 precoated aluminum sheets (Merck).
Chromatographic purification was performed by flash column chromatography on silica gel 60 N (neutral, 40–50 µm, Kanto Chemical). 1H-NMR spectra were recorded in deuterated solvents on an Avance III HD 300 MHz or 500 MHz (Bruker). […] High-resolution mass spectra were measured on a Compact (Bruker) equipped with electron spray ionization (ESI). […]

[2] = tested on: cultured hippocampal neurons; experiment: cLTP stimulation and quantification of cell-surface AMPARs in spines of cultured hippocampal neurons; format: cell-based, mouse; settings: [AP5] = 50 µM, [MK-801] = 20 µM, [KN93] = 5 µM, [BFA] = 25 µM; 200 µM glycine 15 min
Procedure: After washing the cells with Hepes-based ACSF, 100 nM PFQX1(AF488) was added to the dish. The cells were scanned to obtain “basal state” images. Then, the cells were washed three times with cLTP stimulation buffer (Hepes-based ACSF except for MgCl2 supplemented with 20 μM bicuculline and 1 μM strychnine) to remove PFQX1(AF488). cLTP was induced by 200 μM glycine in cLTP stimulation buffer for 15 min at room temperature. After washing the cells with cLTP incubation buffer (Hepes-based ACSF supplemented with 20 μM bicuculline and 1 μM strychnine), the cells were incubated for 60 min at room temperature. Last, 100 nM PFQX1(AF488) was added to the dish, and images were scanned to obtain “after cLTP” images. Inhibitors (50 μM AP5 and 20 μM MK-801 for NMDARs and 5 μM KN93 for CaMKII and 25 μM […] for exocytosis) were added to cLTP stimulation buffer and cLTP incubation buffer. To quantify the fluorescence intensity in spines, the average signal intensity of ROIs set on dendritic spines or dendritic shafts was calculated by ZEN blue software after subtracting background fluorescence. The fold change value was calculated using the following equation: (fluorescence intensity of “after cLTP” images)/(fluorescence intensity of “basal state” images).
To label endogenous AMPARs, 10 μM CAM2(TCO) in the culture medium was gently added to the hippocampal neurons on a glass-bottom dish to a final concentration of 2 μM CAM2(TCO). The cells were incubated for 2 hours at 37°C. In the second step, the culture medium was removed, and the cells were treated with 100 nM Tz(ST647) for 5 min in Hepes-based ACSF at room temperature. To quench excess Tz(ST647), 1 μM TCO-OH in Hepes-based ACSF was added. Then, the cells were treated with 100 nM PFQX1(AF488). Imaging was performed with confocal microscopy.

AMPARs [3] = molecular target: AMPARs; parameters: method as in earlier work; settings: read-out: inhibition constant (Ki) for AMPARs; cited from earlier work
GluA1–4 = experiment: Fluorescence Ca2+ assay, inhibition of glutamate-induced response in HEK293T cells transfected with GluA1-4; format: cell-based, mouse; settings: 30 µM glutamate-induced Ca2+ response; GluA1–4 in HEK293T cells
Procedure: HEK293T cells transfected with Ca2+-permeable GluA1–4 (GluA1 flip(Q), GluA2flip(Q), GluA3flip(Q) (Y454A/R461G), and GluA4flip(Q)) or GluK2(Q) were seeded on the 96 well plate. The cells were loaded with 5 µM Cal-520 AM (AAT Bioquest) in the culture medium for 2 h and washed with HBS using AquaMax 2000 (Molecular devices). The imaging experiment was carried out in an HBS buffer. For the fluorescence Ca2+ imaging, PFQX-amine was pretreated to the cells for 3 min followed by the addition of 30 µM glutamate with 100 µM cyclothiazide as a desensitization inhibitor for AMPARs and 100 µM kainic acid with 100 µM BPAM344 as a desensitization inhibitor for kainate receptors.
Fluorescent intensity of Cal-520 was obtained using FlexStation3 (Molecular devices), and analyzed with SoftMax Pro 7 (Molecular devices). ΔRFU was defined as the difference between the maximum intensity value after adding glutamate and the average intensity value before adding the glutamate. ΔRFU was fitted with KaleidaGraph.
Immunostaining of cultured neurons
The cultured hippocampal neurons were fixed with cold methanol for 5 min and washed with PBS three times. Fixed cells were incubated with Blocking One Histo (Nacalai Tesque) for 10 min. The cells were washed with PBS containing 0.05% Tween 20 (PBS-T) once and incubated with primary antibodies in PBS-T containing 5% Blocking One Histo at room temperature for 2 h. […]

native AMPARs = experiment: Concentration-dependent binding of PFQX1(AF488) to AMPARs in primary cultured hippocampal neurons; parameters: species or system mouse; settings: 10 µM NBQX added after 100 nM PFQX1(AF488); cultured hippocampal neurons
Procedure: We modified the Banker’s culture method of hippocampal neurons ([59]). Glass-bottom dishes (14 mm φ, Matsunami) were coated with poly-D-lysine (Sigma-Aldrich) and washed three times with sterile dH2O. Hippocampi from 16-day-old ICR mouse embryos were aseptically dissected and digested with 0.25% (w/v) trypsin (Nacalai Tesque) for 20 min at 37°C. The cells were resuspended in Neurobasal Plus medium supplemented with 10% FBS, 1 mM GlutaMAX I (Invitrogen), penicillin (100 U/ml), and streptomycin (100 μg/ml) and filtered by Cell Strainer (100 μm, Falcon) followed by centrifugation at 1000 rpm for 5 min. The cells were resuspended in Neurobasal Plus medium supplemented with 2% of B-27 Plus Supplement, 1 mM GlutaMAX I (Invitrogen), penicillin (100 U/ml), and streptomycin (100 μg/ml) and plated at a density of 2 × 10^4 cells on glass-bottom dishes. Precultured cortical astrocytes on glass coverslips (13 mm φ) were transferred to the dishes so that astrocytes were faced to neurons. The cultures were maintained at 37°C in a 95% air and 5% CO2 humidified incubator. The culture medium was replaced every 7 days, and the neurons were used at 16 to 18 days in vitro (DIV).
Calcein Red AM (50 nM; AAT Bioquest) was added to the cultured neurons for 30 min at 37°C to visualize the intracellular region. The cells were washed with Hepes-based ACSF [25 mM Hepes (pH 7.4), 140 mM NaCl, 5 mM KCl, 1.3 mM CaCl2, 2 mM MgCl2, and 33 mM glucose], and 100 nM PFQX1(AF488) in Hepes-based ACSF was added to the dish.
For evaluating the concentration dependency of PFQX1(AF488), the cells were treated with 1 nM PFQX1(AF488). Then, PFQX1(AF488) in Hepes-based ACSF was added stepwise to the dish to a final concentration of 3, 10, 30, 100, 300, and 1000 nM. To quantify the concentration dependency after cLTP, the procedure described above was conducted after cLTP stimulation as described in the section “cLTP and quantification of cell-surface AMPARs.” The average intensity of ROIs set on spines was calculated by ZEN blue software after subtracting background fluorescence. The intensity was fitted with KaleidaGraph to calculate the equilibrium constant value using the following equation: a + (b − a)/(1 + (x/c)^d). The equilibrium constant is regarded as the Kd in this study.

AMPARs [4] = experiment: Staining of AMPARs in acute cerebellar slices; format: binding, mouse; settings: 10 µM NBQX with 30 nM PFQX1(AF488), 5 min; molecular layer
Procedure: following secondary antibodies were used: donkey anti-mouse CF568 conjugated (Sigma, […]
1:1,000) and anti-rabbit Alexa Fluor Plus 488 conjugated (Invitrogen, A32731, 1,000).
Imaging was performed with confocal microscopy.
With two-step labeling, the cells were labeled as described in “Two -step labeling and PFQX1(AF488)staining in cultured neurons,” followed by immunostaining.
In fig. S9A, the cells were incubated with 500 nM CellTracker Red CMPTX (Invitrogen) instead of Calcein Red AM for 30 min at 37 °C to visualize the intracellular region before the immunostaining.
Preparation and staining of cerebellar acute brain slices
C57BL/6J mice (3 weeks) were anesthetized with isoflurane, and their brains were isolated and immediately transferred to ice-cold cutting solution buffer (120 mM Choline Chloride, 3 mM KCl, 8 mM MgCl2, 1.25 mM NaH2PO4, 28 mM NaHCO3, 22 mM Glucose, and 0.5 mM Sodium ascorbate) gassed with 5% CO2 and 95% O2 and incubated for 5 min. Sagittal cerebellar slices were cut with a microslicer (Neo-linear slicer NLS-MT; DOSAKA EM) in cutting solution buffer and then incubated in ACSF […]
NaHCO3, 10 mM Glucose) gassed with 5% CO 2 and 95% O 2 at 37 °C.
Acute slices were transferred to glass bottom dishes and treated with 30 nM PFQX1(AF488) in HEPES-based ACSF for 5 min. […]
Scale bars, 500 µm. (F) Quantification of probe intensity in Ε. […]

C[C@H]1CCC/C=C/[C@@H]2C[C@H](O)C[C@H]2[C@H](O)/C=C/C(=O)O1 [brefeldin A]
effect on spontaneous exocytosis of Halo-tag-fused AMPAR to the cell surface [1]: markedly suppressed the spontaneous exocytosis
effect on the increase in PFQX1(AF488) fluorescence in spines after cLTP stimulation [2]: inhibited the fluorescent increase in PFQX1(AF488)

C[C@]12N[C@H](Cc3ccccc31)c1ccccc12 [MK-801]
effect on the increase in PFQX1(AF488) fluorescence in spines after cLTP stimulation [2]: suppressed the increase in PFQX1(AF488) fluorescence

NC(CCCP(=O)(O)O)C(=O)O (stereo not drawn) [AP5]
effect on the increase in PFQX1(AF488) fluorescence in spines after cLTP stimulation [2]: suppressed the increase in PFQX1(AF488) fluorescence; also recorded: increase in both PFQX1(AF488) and ST647 fluorescence was not observed

COc1ccc(S(=O)(=O)N(CCO)c2ccccc2CN(C)C/C=C/c2ccc(Cl)cc2)cc1 [KN93]
effect on the increase in PFQX1(AF488) fluorescence in spines after cLTP stimulation [2]: suppressed the increase in PFQX1(AF488) fluorescence

O=c1[nH]c2cc(-n3cccc3)c(C(F)(F)F)cc2[nH]c1=O [PFQX, 6-pyrrolyl-7-trifluoromethyl-quinoxaline-2,3-dione]
Ki (AMPARs [3]): 170 nM
antagonism of AMPAR subunits (GluA1–4): antagonized AMPARs in a subunit-nonspecific manner

NS(=O)(=O)c1cccc2c1c([N+](=O)[O-])cc1[nH]c(=O)c(=O)[nH]c12 [NBQX, 2,3-dioxo-6-nitro-1,2,3,4-tetrahydrobenzo(f)quinoxaline-7-sulfonamide, reference compound]
competitive inhibition of PFQX1(AF488) binding in neurons (native AMPARs): fluorescent signals from the puncta disappeared
competitive inhibition of PFQX1(AF488) binding in cerebellar slices (AMPARs [4]): significantly weakened
